Test results taken from ChEMBL document CHEMBL4342510, “Design and Synthesis of Benzene Congeners of Resolvin E2, a Proresolving Lipid Mediator, as Its Stable Equivalents” (ACS Med Chem Lett, 2020).
The source made the active and inactive calls. The rule behind the calls is not given here.

Key:
Mus musculus [1] = assay: Antiinflammatory activity against BALB/c mouse model of heat-killed Propionibacterium acnes-induced peritonitis assessed as decrease in number of neutrophils at 300 pg, ip administered 12 hrs post Propionibacterium acnes injection and measured after 12 hrs; format: functional, organism-based
Mus musculus [2] = assay: Antiinflammatory activity against ip dosed BALB/c mouse model of heat-killed Propionibacterium acnes-induced peritonitis assessed as decrease in number of neutrophils administered 12 hrs post Propionibacterium acnes injection and measured after 12 hrs; format: functional, organism-based
[3] = Metabolic stability in human liver microsomes assessed as parent compound remaining measured after 6 hrs by HPLC analysis; format: ADME, Microsome; conditions: read-out: Stability

CC[C@@H](O)/C=C/C=C\C/C=C\C/C=C\C=C\[C@@H](O)CCCC(=O)O
inhibition (Mus musculus [1]): Active | inhibition (Mus musculus [2]): Dose-dependent effect | remaining at 6 h [3]: < 40%

CC[C@@H](O)/C=C/c1cccc(C/C=C/[C@@H](O)CCCC(=O)O)c1
inhibition (Mus musculus [1]): inactive

CC[C@@H](O)/C=C/c1ccc(C/C=C/[C@@H](O)CCCC(=O)O)cc1
inhibition (Mus musculus [1]): inactive | remaining at 6 h [3]: < 40%

CC[C@@H](O)/C=C/c1ccccc1C/C=C/[C@@H](O)CCCC(=O)O
inhibition (Mus musculus [1]): Active | inhibition (Mus musculus [2]): Dose-dependent effect
